What is called IC50 is the concentration that gives 50% inhibition.

Read-outs that look alike come from different tables or passages of the source.

In one test the target is human Gal-1 (hGal-1) (Homo sapiens (Human), UniProt P09382). The test can be described thus: competitive binding assay: biotinylated hGal-1 binding to microplate-adsorbed asialofetuin (ASF). As to conditions: Table 15; read-out: IC50 (Galectin-1 inhibition). The procedure, abridged: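 Spectrophotometric competition readout: after compound and biotinylated hGal-1 (300-1000 ng/mL) sit 3 h at 4° C on adsorbed asialofetuin, streptavidin-peroxidase (1 h, 4° C) and ABTS reveal residual binding. Reported IC50 values are means of repeat runs.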

The next test concerns the target human Gal-3 (hGal-3) (Homo sapiens (Human), UniProt P17931). Put plainly: competitive binding assay: biotinylated hGal-3 binding to microplate-adsorbed asialofetuin (ASF). The procedure, abridged: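 Serial DMSO dilutions of each compound; binding incubation of 3 hours at 4 °C with cold-buffer washes; detection using 80 ng/mL streptavidin-peroxidase for 1 hour, then ABTS. Multiple determinations were averaged to give the IC50.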

[1] abbreviates: Gal-3 inhibition, binding of biotinylated hGal-3 to ASF, mean values, read-out: IC50.
The mark [2] stands for this setting: Table 5, read-out: IC50 (Gal-3 inhibition).
Setting [3] is: Table 9, 2-OMe-Gal inhibitors, read-out: IC50 (Gal-3 inhibition).

Sequence of human Gal-3 (hGal-3) (P17931 whole entry): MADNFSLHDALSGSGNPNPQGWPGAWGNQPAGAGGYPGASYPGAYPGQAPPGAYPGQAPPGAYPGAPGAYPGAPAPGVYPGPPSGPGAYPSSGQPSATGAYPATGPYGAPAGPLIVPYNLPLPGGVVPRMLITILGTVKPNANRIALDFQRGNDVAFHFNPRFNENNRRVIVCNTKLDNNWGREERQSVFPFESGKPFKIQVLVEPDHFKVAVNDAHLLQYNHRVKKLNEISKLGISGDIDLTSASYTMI
Sequence of human Gal-1 (hGal-1) (P09382 whole entry): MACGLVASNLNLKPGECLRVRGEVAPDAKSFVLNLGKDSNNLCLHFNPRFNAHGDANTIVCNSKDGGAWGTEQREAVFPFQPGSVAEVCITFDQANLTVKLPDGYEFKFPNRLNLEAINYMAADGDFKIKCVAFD

Turning to `CC(C)(O)C(S[C@@H]1O[C@H](CO)[C@H](O)[C@H](n2cc(-c3cc(F)c(F)c(F)c3)nn2)[C@H]1O)c1ccccc1C(F)(F)F` (stereo partly drawn) [Example 2.31.112., (2S,3R,4S,5R,6R)-2-((2-Hydroxy-2-methyl-1-(2-(trifluoromethyl)phenyl)propyl)thio)-6-(hydroxymethyl)-4-(4-(3,4,5-trifluorophenyl)-1H-1,2,3-triazol-1-yl)tetrahydro-2H-pyran-3,5-diol], the IC50 was determined as 5230 nM at human Gal-1 (hGal-1) and 250 nM on human Gal-3 (hGal-3) (setting [1]).

`CCCc1onc(C(S[C@@H]2O[C@H](CO)[C@H](O)[C@H](n3cc(-c4cc(F)c(F)c(F)c4)nn3)[C@H]2OC)C2(O)CCC(F)(F)CC2)c1CC` (stereo partly drawn) [Example 2.44.146.I., (2R,3R,4S,5R,6S)-6-(((4,4-Difluoro-1-hydroxycyclohexyl)(4-ethyl-5-propylisoxazol-3-yl)methyl)thio)-2-(hydroxymethyl)-5-methoxy-4-(4-(3,4,5-trifluorophenyl)-1H-1,2,3-triazol-1-yl)tetrahydro-2H-pyran-3-ol]: the IC50 on human Gal-1 (hGal-1) was 170 nM; on human Gal-3 (hGal-3) (Table 11, read-out: IC50 (Gal-3 inhibition)), 120 nM.

Regarding `Cc1nccnc1C(S[C@@H]1O[C@H](CO)[C@H](O)[C@H](n2cc(-c3cc(F)c(F)c(F)c3)nn2)[C@H]1O)C1(O)CCC(F)(F)CC1` (stereo partly drawn) [Example 2.44.129., (2S,3R,4S,5R,6R)-2-(((4,4-Difluoro-1-hydroxycyclohexyl)(3-methylpyrazin-2-yl)methyl)thio)-6-(hydroxymethyl)-4-(4-(3,4,5-trifluorophenyl)-1H-1,2,3-triazol-1-yl)tetrahydro-2H-pyran-3,5-diol], the results for the IC50 at human Gal-1 (hGal-1) and on human Gal-3 (hGal-3) (setting [1]) were 350 nM and 90 nM, respectively.

For “(2S,3R,4S,5R,6R)-2-(((R)-(2-Cyclopropylphenyl)(4,4-difluoro-1-hydroxycyclohexyl)methyl)thio)-6-(hydroxymethyl)-4-(4-(3,4,5-trifluorophenyl)-1H-1,2,3-triazol-1-yl)tetrahydro-2H-pyran-3,5-diol [Example 2.44.106R.]”, the IC50 on human Gal-1 (hGal-1) came to 20 nM; on human Gal-3 (hGal-3) (setting [2]), 60 nM.

Turning to `CO[C@@H]1[C@@H](n2cc(-c3cc(F)c(F)c(F)c3)nn2)[C@@H](O)[C@@H](CO)O[C@H]1S[C@H](c1ccccc1C)[C@]1(O)CCOC(C)(C)C1` [Example 2.43.102RS.I., (2R,3R,4S,5R,6S)-6-(((R)-((S)-4-Hydroxy-2,2-dimethyltetrahydro-2H-pyran-4-yl)(o-tolyl)methyl)thio)-2-(hydroxymethyl)-5-methoxy-4-(4-(3,4,5-trifluorophenyl)-1H-1,2,3-triazol-1-yl)tetrahydro-2H-pyran-3-ol], the results for the half-maximal inhibitory concentration (IC50) at human Gal-1 (hGal-1) and on human Gal-3 (hGal-3) (setting [3]) were 1900 nM and 60 nM, respectively.

For `Cc1conc1C(S[C@@H]1O[C@H](CO)[C@H](O)[C@H](n2cc(-c3cc(F)c(F)c(F)c3)nn2)[C@H]1O)C(C)(C)O` (stereo partly drawn) [Example 2.31.120., (2S,3R,4S,5R,6R)-2-((2-Hydroxy-2-methyl-1-(4-methylisoxazol-3-yl)propyl)thio)-6-(hydroxymethyl)-4-(4-(3,4,5-trifluorophenyl)-1H-1,2,3-triazol-1-yl)tetrahydro-2H-pyran-3,5-diol], the IC50 amounted to 3000 nM on human Gal-1 (hGal-1) and 730 nM at human Gal-3 (hGal-3) (setting [1]).

Turning to `CO[C@@H]1[C@@H](n2cc(-c3ccc(F)c(F)c3)nn2)[C@@H](O)[C@@H](CO)O[C@H]1S[C@H](c1ncccc1C)C1(O)CCC(F)(F)CC1` [Example 16.44.126R.I., (2R,3R,4S,5R,6S)-6-(((R)-(4,4-Difluoro-1-hydroxycyclohexyl)(3-methylpyridin-2-yl)methyl)thio)-4-(4-(3,4-difluorophenyl)-1H-1,2,3-triazol-1-yl)-2-(hydroxymethyl)-5-methoxytetrahydro-2H-pyran-3-ol], the IC50 at human Gal-1 (hGal-1) is 570 nM; at human Gal-3 (hGal-3) (Table 14, read-out: IC50 (Gal-3 inhibition)), 80 nM.

On to `Cc1nc([C@H](S[C@@H]2O[C@H](CO)[C@H](O)[C@H](n3cc(-c4cc(F)c(F)c(F)c4)nn3)[C@H]2O)C(C)(C)O)c(C)o1` [Example 2.31.122S., (2S,3R,4S,5R,6R)-2-(((S)-1-(2,5-dimethyloxazol-4-yl)-2-hydroxy-2-methylpropyl)thio)-6-(hydroxymethyl)-4-(4-(3,4,5-trifluorophenyl)-1H-1,2,3-triazol-1-yl)tetrahydro-2H-pyran-3,5-diol], for which the IC50 worked out at 11200 nM at human Gal-1 (hGal-1) and 4120 nM on human Gal-3 (hGal-3) (setting [1]).

For `Cc1ccccc1C(S[C@@H]1O[C@H](CO)[C@H](O)[C@H](n2cc(-c3cc(F)c(F)c(F)c3)nn2)[C@H]1O)C1(O)CCN(C)CC1` (stereo partly drawn) [Example 2.40.102., (2S,3R,4S,5R,6R)-2-(((4-Hydroxy-1-methylpiperidin-4-yl)(o-tolyl)methyl)thio)-6-(hydroxymethyl)-4-(4-(3,4,5-trifluorophenyl)-1H-1,2,3-triazol-1-yl)tetrahydro-2H-pyran-3,5-diol], the IC50 on human Gal-1 (hGal-1) came to 730 nM; at human Gal-3 (hGal-3) (setting [2]), 90 nM.

In the case of `CCCc1ccccc1C(S[C@@H]1O[C@H](CO)[C@H](O)[C@H](n2cc(-c3cc(F)c(F)c(F)c3)nn2)[C@H]1O)C(C)(C)O` (stereo partly drawn) [Example 2.31.104., (2S,3R,4S,5R,6R)-2-((2-Hydroxy-2-methyl-1-(2-propylphenyl)propyl)thio)-6-(hydroxymethyl)-4-(4-(3,4,5-trifluorophenyl)-1H-1,2,3-triazol-1-yl)tetrahydro-2H-pyran-3,5-diol], the IC50 at human Gal-1 (hGal-1) stood at 600 nM; on human Gal-3 (hGal-3) (setting [1]), 170 nM.

With `CO[C@@H]1[C@@H](n2cc(-c3cc(F)c(F)c(F)c3)nn2)[C@@H](O)[C@@H](CO)O[C@H]1S[C@H](c1ncccc1C)C1(O)CCC(F)(F)CC1` [Example 2.44.126R.I., (2R,3R,4S,5R,6S)-6-(((R)-(4,4-Difluoro-1-hydroxycyclohexyl)(3-methylpyridin-2-yl)methyl)thio)-2-(hydroxymethyl)-5-methoxy-4-(4-(3,4,5-trifluorophenyl)-1H-1,2,3-triazol-1-yl)tetrahydro-2H-pyran-3-ol], the IC50 is 680 nM on human Gal-1 (hGal-1) and 70 nM on human Gal-3 (hGal-3) (setting [3]).

Regarding `Cc1ccccc1C(S[C@@H]1O[C@H](CO)[C@H](O)[C@H](n2cc(-c3cc(F)c(F)c(F)c3)nn2)[C@H]1O)C1(O)CC(C)C1C` (stereo partly drawn) [Example 2.37.102., (2S,3R,4S,5R,6R)-2-(((1-Hydroxy-2,3-dimethylcyclobutyl)(o-tolyl)methyl)thio)-6-(hydroxymethyl)-4-(4-(3,4,5-trifluorophenyl)-1H-1,2,3-triazol-1-yl)tetrahydro-2H-pyran-3,5-diol], the IC50 turned out to be 5360 nM on human Gal-1 (hGal-1) and 560 nM at human Gal-3 (hGal-3) (setting [2]).

Consider “(2S,3R,4S,5R,6R)-2-(((S)-(2-Cyclopropylphenyl)(4,4-difluoro-1-hydroxycyclohexyl)methyl)thio)-6-(hydroxymethyl)-4-(4-(3,4,5-trifluorophenyl)-1H-1,2,3-triazol-1-yl)tetrahydro-2H-pyran-3,5-diol [Example 2.44.106S.]”, for which the figures for the IC50 at human Gal-1 (hGal-1) and at human Gal-3 (hGal-3) (setting [2]) were 1900 nM and 930 nM, respectively.

Consider `CCn1nnc(C)c1[C@@H](S[C@@H]1O[C@H](CO)[C@H](O)[C@H](n2cc(-c3cc(F)c(F)c(F)c3)nn2)[C@H]1OC)C1(O)CCC(F)(F)CC1` [Example 2.44.138R.I., (2R,3R,4S,5R,6S)-6-(((R)-(4,4-Difluoro-1-hydroxycyclohexyl)(1-ethyl-4-methyl-1H-1,2,3-triazol-5-yl)methyl)thio)-2-(hydroxymethyl)-5-methoxy-4-(4-(3,4,5-trifluorophenyl)-1H-1,2,3-triazol-1-yl)tetrahydro-2H-pyran-3-ol], for which the IC50 on human Gal-1 (hGal-1) turned out to be 400 nM; on human Gal-3 (hGal-3) (Table 10, 2-OMe-Gal inhibitors, read-out: IC50 (Gal-3 inhibition)) it was 150 nM.

For the origin of these results see patent US12404295B2, “(Hetero)aryl-methyl-thio-beta-D-galactopyranoside derivatives” (Idorsia Pharmaceuticals Ltd, priority 2019, dated 2025).
